According to US20210308196A1, “COMPOSITIONS AND METHODS TO PROMOTE HOST DEFENSE AND STIMULATE, EXPAND, AND/OR RESET T CELL REPERTOIRES” (EVOLVE BIOSYSTEMS, INC., priority 2018, published 2021):

Experiments:
Format in all cases: in vivo, human
[1] = system: IL-1β, IL-2, IL-5, IL-6, IL-8, IL-10, IL-22, IFNγ, TNFα; experiment: Fecal cytokines, multiplexed immunoassay (MSD U-PLEX Inflammation Panel 1); details: for IFNγ Median (SD) / IL-1β Median (SD) / IL-2 Median (SD) / IL-5 Median (SD) / IL-6 Median (SD) / IL-8 Median (SD) / IL-10 Median (SD) / IL-22 Median (SD) / TNFα Median (SD): infant feces
Experimental: Multiplexed Immunoassays. Interleukin (IL)-1β, IL-2, IL-5, IL-6, IL-8, IL-10, IL-22, interferon (IFN) γ, and tumor necrosis factor (TNF) α were quantified from 80 mg of stool diluted 1:10 in Meso Scale Discovery (MSD; Rockville, Md.) diluent using the U-PLEX Inflammation Panel 1 (human) Kit according to the manufacturer's instructions. Standards and samples were measured in duplicate and blank values were subtracted from all readings. The plate was then read on a Sector Imager 2400 MSD Discovery Workbench analysis software. Statistical Analysis. Demographic differences between Control and EVC001-fed infants was analyzed using Fisher's Exact test for categorical data and Wilcoxon rank sum (Mann-Whitney U) test for continuous data. […] The relationship between fecal calprotectin concentration and % Bifidobacteriaceae was quantified using Spearman's Rho correlation, and the differences in calprotectin concentration between high (>25%) and low (<25%) Bifidobacteriaceae abundance was assessed using the Wilcoxon rank sum test. One subject with abnormally high fecal calprotectin concentration (greater than 3 standard deviations above the mean of both treatment and control data) was considered an extreme outlier and removed from the aforementioned calprotectin analyses. Wilcoxon rank sum tests were performed to assess relative abundance for each bacterial taxa and cytokine concentration differences. For radar plots, medians were adjusted to log scale, then normalized within each cytokine group from 0 to 1. Differences overtime within each cytokine group were evaluated using the Wilcoxon rank sum test. P-values were adjusted using the Bonferroni-Holms method and considered statistically significant if P<0.05. Statistical analyses were applied to determine the significance of global cytokine profile as determined by computing a Bray-Curtis distance metric translated into a principal coordinate analysis and visualized with EMPeror. Global cytokine profile differences by group status were then determined using a permutational multivariate analysis of variance (PERMANOVA), and significant P-values were determined using 999 Monte Carlo permutations. To assess the relationship between the global cytokine profile and the microbiome, we used a Procrustes analysis. The taxonomic operational taxonomic unit (OTU) table at the family level was computed using QIIME, and the cytokine table was used to generate a distance matrix for each, using a weighted UniFrac for 16S and Bray-Curtis for the cytokine. We performed a principal coordinate analysis separately on the two matrices and used a Procrustes analysis as implemented in QIIME to rotate, translate, and scale the matrices. The resulting transformed matrices were plotted using EMPeror. P-values for the Procrustes analysis were generated using Monte Carlo simulations (n=999). Raw correlation statistics were assigned the likelihood of these associations to be true positive associations by computing P-values via a Fisher's Z transform to normalize the distribution of the correlation scores.

[2] = Safety and tolerability of B. infantis EVC001 supplementation in healthy term nursing infants; details: healthy term breastfed infants
Experimental: This trial was designed to show the effect of probiotic supplementation with Bifidobacterium longum subsp. Infantis (B. infantis EVC001) in healthy, term, nursing infants compared to an unsupplemented group. A dry composition of lactose and activated Bifidobacterium longum subsp. infantis was prepared starting with the cultivation of a purified isolate (Strain EVC001 ATCC Accession No. PTA-125180, Evolve Biosystems Inc., Davis, Calif., isolated from a human infant fecal sample) in the presence of BMO according to International Patent Application No. PCT/US2015/057226. […] This concentrated powder was then diluted by blending with infant formula grade lactose to an activity level of about 30 Billion CFU/g. This composition then was loaded into individual sachets at about 0.625 g/sachet and provided to breast-fed infants starting on or about day 7 of life and then provided on a daily basis for the subsequent 21 days.
This was a 60-day study starting with infants' date of birth as Day 1. […]
Infant fecal samples were collected throughout the 60-day trial. […] Safety and tolerability were determined from maternal reports of infants' feeding, stooling frequency, and consistency (using a modified Amsterdam infant stool scale—watery, soft, formed, hard; Bekkali et al. 2009), as well as GI symptoms and health outcomes. […]

[3] = system: TNF; experiment: Fecal TNF expression; details: treatment group
[4] = Day 40 compared to Day 6, within EVC001-fed infants
[5] = Day 60 compared to Day 6, within EVC001-fed infants
[6] = Day 6 (Baseline), before supplementation starts on Day 7

With “Bifidobacterium longum subsp. infantis EVC001 [B. infantis EVC001]” the “Fecal IFNγ level change over time” value [1, 4] was “significantly increased”, the “Fecal IL-2 level change over time” value [1, 4] was “significantly lower” and the “Fecal IL-5 level change over time” value [1, 4] was “significantly lower”. For the same substance, the “Fecal IL-6 level change over time” value [1, 4] was “significantly lower”, the “Fecal IL-10 level change over time” value [1, 4] was “significantly lower” and the “Fecal IL-22 level change over time” value [1, 4] was “significantly lower”. For the same substance, the “Fecal TNFα level change over time” value [1, 4] was “significantly lower”, the “Fecal IFNγ level change over time” value [1, 5] was “significantly higher” and the “Fecal IL-2 level change over time” value [1, 5] was “significantly lower”. The “Fecal IL-5 level change over time” value [1, 5] was “significantly lower”, the “Fecal IL-6 level change over time” value [1, 5] was “significantly lower” and the “Fecal IL-10 level change over time” value [1, 5] was “significantly lower”. The “Fecal TNFα level change over time” value [1, 5] was “significantly lower”, the “Fecal IL-22 level change over time” value ([1]; Day 60 compared to Day 40, within EVC001-fed infants) was “significantly higher” and the “Fecal cytokine levels overall” value ([1]; first 60 days postnatal, versus Control infants) was “significantly lower”. For the same substance, the “IFNγ Median (SD)” value [1, 6] was 0.29 pg/mg, the “IL-1β Median (SD)” value [1, 6] was 38.65 pg/mg and the “IL-2 Median (SD)” value [1, 6] was 48.13 pg/mg. For the same substance, the “IL-5 Median (SD)” value [1, 6] was 16.53 pg/mg, the “IL-6 Median (SD)” value [1, 6] was 9.29 pg/mg and the “IL-8 Median (SD)” value [1, 6] was 48.35 pg/mg. The “IL-10 Median (SD)” value [1, 6] was 8.76 pg/mg, the “IL-22 Median (SD)” value [1, 6] was 4.22 pg/mg and the “TNFα Median (SD)” value [1, 6] was 26.71 pg/mg. For the same substance, the “IL-2 Median (SD)” value ([1]; Day 40) was 3.36 pg/mg, the “IL-5 Median (SD)” value ([1]; Day 40) was 1.48 pg/mg and the “IL-6 Median (SD)” value ([1]; Day 40) was 0.48 pg/mg. The “IL-10 Median (SD)” value ([1]; Day 40) was 0.55 pg/mg, the “TNFα Median (SD)” value ([1]; Day 40) was 2.7 pg/mg and the “IFNγ Median (SD)” value ([1]; Day 60) was 26.74 pg/mg. The “IL-1β Median (SD)” value ([1]; Day 60) was 13.22 pg/mg, the “IL-2 Median (SD)” value ([1]; Day 60) was 3.16 pg/mg and the “IL-5 Median (SD)” value ([1]; Day 60) was 1.85 pg/mg. The “IL-6 Median (SD)” value ([1]; Day 60) was 0.71 pg/mg, the “IL-8 Median (SD)” value ([1]; Day 60) was 70.13 pg/mg and the “IL-10 Median (SD)” value ([1]; Day 60) was 0.46 pg/mg. For the same substance, the “IL-22 Median (SD)” value ([1]; Day 60) was 3.54 pg/mg, the “TNFα Median (SD)” value ([1]; Day 60) was 3.97 pg/mg and the “Adverse events versus unsupplemented group” value ([2]; 60-day study) was “not different between groups”. For the same substance, the Tolerability ([2]; at least 1.8×10^10 cfu once daily for 21 days from Day 7) was “well-tolerated” and the “Fecal TNF expression” value [3] was “significantly reduced”.
